According to patent US20150283227A1, “SYNTHETIC ENV PROTEINS” (priority 2012, published 2015):
Like-named read-outs stand apart in the source and are kept apart here. Where a SMILES comes first, the peptide text is derived from it. [ ]: non-standard residue; d: D form. The star is where a group is joined. ξ: configuration not given here. X1 = CC(=O)NC1C(O)[C@H](O)C(CO)O[C@H]1O[C@@H]1C(CO)O[C@@H](N*)C(NC(C)=O)C1O; Orn(CH(NH2)2) = NC(N)NCCC[C@H](N)C(=O)O; Ile(3ξ) = CCC(C)[C@H](N)C(=O)O; Thr(3ξ) = CC(O)[C@H](N)C(=O)O

Legend:
CH58 UCA = experiment: SPR binding to unmutated ancestor of CH58; design: species or system human; conditions: Example 1
Protocol: (§1) Only the V1/V2 mAb CH58 bound to the glycan-deficient (aglycone) peptide (FIG. 9A). V1/V2 bNAbs ([…], CH01) bound weakly to V1/V2 GlcNAc2 peptide (FIG. 9B). In contrast, both bNAbs PG9 and CH01 bound avidly to the glycopeptides, V1/V2 Man3GlcNAc2 and V1/V2 Man5GlcNAc2 (FIGS. 9C and 9D). CH58 bound weakly to both glycopeptides. Each of the mAbs was captured on a human Fc specific IgG directly immobilized on a BIAcore CM5 sensor chip. Each of the V1/V2 peptides (3 min at 50 uL/min) was injected over the mAb captured surface and SPR binding was monitored on a BIAcore 3000 instrument. Non-specific binding of peptides was subtracted following measurement of signal on a surface with a control ant-RSV mab Synagis.
(§2) V1V2 glycopeptide binding Kd and rate constant measurements were carried out on BIAcore 3000 instruments as described earlier (Alam et al, Immunol. 178(7):4424-4435 (2007), Alam et al, J. Virol. 82(1):115-125 (2008)). Anti-human IgG Fc antibody (Sigma Chemicals) was immobilized on either a CM3 or CM5 (CM3 for kinetics and Kd determination) sensor chip (to minimize non-specific binding of peptides to chip matrix) to about 5000 Resonance Unit (RU) and each antibody was captured to about 100-200 RU on individual flow cells, in addition to one flow cell with the control Synagis mAb on the same sensor chip. Non-specific binding of V1V2 glycopeptide was double-referenced by substracting the control surface and blank buffer flow for each mAb-V1V2 glycopeptide binding interaction. […] SPR curve fitting analysis was performed using global fit of multiple titrations to the 1:1 Langmuir model. All data analysis was performed using the BIAevaluation 4.1 analysis software (GE Healthcare).

[1] = Circular dichroism analysis of V1V2 peptides; assay type: physicochemical; conditions: dimerized in 20% DMSO-phosphate buffer about 20 h
Protocol: Circular dichroism (CD) spectra of V1/V2 peptides were measured on an Aviv model 202 spectropolarimeter using a 1 mm path length quartz cuvette. The 20% DMSO-treated peptides were dialyzed against 20 mM phosphate buffer, pH 7.0 to remove DMSO using a dialysis cassette of MW cut-off 3500 Da. The CD spectra of peptides (at 100 200 μg/ml concentration) in phosphate buffer (pH 7.4) were recorded at 25° C. Three scans of the CD spectra of each peptide were averaged and the CD signal from phosphate buffer was subtracted out.

BnAb CH01 = experiment: SPR binding of V1V2 peptides/glycopeptides to captured mAb CH01; design: species or system human
PG9 UCA = experiment: SPR binding to unmutated ancestor of PG9; design: species or system human
Protocol: as §1
(§3) The binding Kd (disassociation constant) of the UAs ranges from about 0.15 to 0.2 μM.
as §2

V2 mAb CH59 = experiment: SPR binding of V1V2 peptides to captured V2 mAb CH59; design: species or system human; conditions: Example 6; peptide oxidized by solubilization in DMSO, 50 ug/mL
Excerpt: FIGS. 42A-42D. Selective binding of V1V2 BnAbs to mannose derivatized V1V2 glycopeptides but not to aglycone or GlcNAc2 V1V2 peptides. SPR curves showing preferential binding of PG9 and CH01 BnAbs to Man5—(FIG. 42A) and Man3—(FIG. 42B) GlcNAc2 V1V2 glycopeptides but not to GlcNAc2 (FIG. 42C) and aglycone (FIG. 42D) peptides. By contrast, V2 mAbs CH58 and CH59 bound to both aglycone ([…]) and GlcNAc2 (FIG. 42D) V1V2 peptides. Each V1V2 peptide was oxidized by solubilization in DMSO and injected over the indicated MAb at 50 ug/mL. Data shown is after reference subtraction of non-specific signal measured over the control mAb (Synagis). Binding data are representative of at least three experiments for Man5 and Man3 V1V2 peptides and two experiments for GlcNAc2 and aglycone V1V2.
V1V2 glycopeptide binding Kd and rate constant measurements were carried out on BIAcore 3000 instruments as described earlier (Alam et al, Immunol. 178(7):4424-4435 (2007), Alam et al, J. Virol. 82(1):115-125 (2008)). Anti-human IgG Fc antibody (Sigma Chemicals) was immobilized on either a CM3 or CM5 (CM3 for kinetics and Kd determination) sensor chip (to minimize non-specific binding of peptides to chip matrix) to about 5000 Resonance Unit (RU) and each antibody was captured to about 100-200 RU on individual flow cells, in addition to one flow cell with the control Synagis mAb on the same sensor chip. […]

BnAb PG9 = assay type: binding, human
Protocol: V1V2 glycopeptide binding Kd and rate constant measurements were carried out on a BIAcore 3000 instrument using an anti-human Ig Fc capture assay as described earlier (Alam, S. M.; McAdams, M.; Boren, D.; Rak, M.; Scearce, R. M.; Gao, F.; Camacho, Z. T.; Gewirth, D.; Kelsoe, G.; Chen, P.; Haynes, B. F. J. Immunol. 2007, 178, 4424-4435.). Anti-human IgG Fc antibody (Sigma Chemicals) was immobilized on a CM5 sensor chip to about 10000 response units (RU), and each antibody was captured to about 300 RU. Anti-RSV Synagis mAb was captured on the same sensor chip as a control surface. Non-specific binding and drift in signal was double referenced by subtracting binding to the control surface and blank buffer flow for each of the peptide binding interactions. All curve-fitting analyses were performed using global fit of multiple titrations to the 1:1 Langmuir model. All data analysis was performed using the BIAevaluation 4.1 analysis software (GE Healthcare).

CH01 UCA = experiment: SPR binding to unmutated ancestor of CH01; design: species or system human
Protocol: as §1, §3, §2

V2 mAb CH58 = experiment: SPR binding of V1V2 peptides/glycopeptides to captured V2 mAb CH58; design: species or system human; conditions: Example 6; peptide solubilized/oxidized in DMSO, 1-50 μg/mL
[2] = Example 6, peptide solubilized/oxidized in DMSO, 50 μg/mL
[3] = glycans in the absence of the V2 peptide backbone
[4] = Example 5, peptides 200 μg/mL, glycans 25 μg/mL over captured PG9

Compound: CCC(C)[C@H](NC(=O)[C@@H]1CCCN1C(=O)[C@@H](NC(=O)[C@@H](NC(=O)[C@H](CC(=O)O)NC(=O)[C@H](CC(C)C)NC(=O)[C@H](CCCCN)NC(=O)[C@H](Cc1ccc(O)cc1)NC(=O)[C@H](Cc1ccccc1)NC(=O)[C@H](CC(C)C)NC(=O)[C@H](C)NC(=O)[C@H](Cc1cnc[nH]1)NC(=O)[C@@H](NC(=O)[C@H](CCCCN)NC(=O)[C@H](CCC(N)=O)NC(=O)[C@H](CCCCN)NC(=O)[C@H](CCCCN)NC(=O)[C@H](CC(=O)O)NC(=O)[C@H](CCCNC(=N)N)NC(=O)[C@H](CC(C)C)NC(=O)[C@H](CCC(=O)O)NC(=O)[C@@H](NC(=O)[C@@H](NC(=O)[C@H](CCSC)NC(=O)[C@H](CC(=O)N[C@@H]1OC(CO)[C@@H](O[C@@H]2OC(CO)[C@@H](O)C(O)C2NC(C)=O)C(O)C1NC(C)=O)NC(=O)[C@H](Cc1ccccc1)NC(=O)[C@H](CO)NC(=O)[C@H](CS)NC(=O)[C@H](CC(=O)N[C@@H]1OC(CO)[C@@H](O[C@@H]2OC(CO)[C@@H](O)C(O)C2NC(C)=O)C(O)C1NC(C)=O)NC(=O)[C@H](CCCNC(N)N)NC(=O)[C@@H](NC(=O)[C@H](CCC(=O)O)NC(=O)[C@H](CC(=O)O)NC(=O)[C@@H](NC(=O)[C@@H](NC(C)=O)C(C)CC)C(C)O)C(C)C)C(C)O)C(C)O)C(C)C)C(C)CC)C(C)C)C(N)=O (stereo partly drawn) [GlcNAc2 V1V2] (Ac-[Ile(3ξ)][Thr(3ξ)]DEV[Orn(CH(NH2)2)]D(X1)CSFD(X1)M[Thr(3ξ)][Thr(3ξ)]ELRDKKQKVHALFYKLD[Ile(3ξ)]VP[Ile(3ξ)]-NH2)
- SPR binding to CH58 UA (CH58 UCA): no binding
- β-strand (CD spectra deconvolution, K2D3) [1]: 17%
- SPR binding to CH01 (BnAb CH01; Example 1, peptide injected over captured mAb): bound weakly
- SPR binding to CH01 (BnAb CH01; [2]): no binding
- SPR binding to PG9 UA (PG9 UCA; Example 1): no binding
- SPR binding to PG9 UCA (PG9 UCA; Example 6): neither UCAs bound
- SPR binding to CH59 (V2 mAb CH59): bound
- SPR binding to PG9 (BnAb PG9; Example 1, peptide injected over mAb captured on anti-human Fc, BIAcore 3000): bound weakly
- SPR binding to PG9 (BnAb PG9; Example 5, peptides 200 μg/mL, glycans 25 μg/mL over captured PG9, listed as 3): did not bind
- SPR binding to PG9 (BnAb PG9; Example 5, peptides 200 μg/mL, glycans 25 μg/mL over captured PG9, listed as V1V2 GlcNAc2): minimal to no binding
- SPR binding to PG9 (BnAb PG9; [2]): no binding
- SPR binding to CH01 UA (CH01 UCA; Example 1): slow association indicating weak affinity interaction
- SPR binding to CH01 UCA (CH01 UCA; Example 6): neither UCAs bound
- SPR binding to CH58 (V2 mAb CH58): retained

Compound: CC(=O)NC1C(O)OC(CO)[C@@H](O[C@@H]2OC(CO)[C@@H](O[C@@H]3OC(CO[C@H]4OC(CO)[C@@H](O)[C@H](O)C4O)[C@@H](O)[C@H](O[C@H]4O[C@@H](CO)[C@@H](O)C(O)C4O)C3O)[C@H](O)C2NC(C)=O)[C@@H]1O (stereo partly drawn) [Man3GlcNAc2 glycan alone, [α-D-mannopyranosyl-(1→3)]-[α-D-mannopyranosyl-(1→6)]-β-D-mannopyranosyl-(1→4)-2-deoxy-2-N-acetyl-β-D-glucopyranosyl-(1→4)-2-deoxy-2-N-acetyl-D-glucopyranoside, reference compound]
- SPR binding to CH01 (BnAb CH01; [3]): not detected
- SPR binding to PG9 (BnAb PG9; [4]): minimal to no binding
- SPR binding to PG9 (BnAb PG9; Example 5, peptides 200 μg/mL, glycans 25 μg/mL over captured PG9, listed as Man3GlcNAc2 glycan): not detected
- SPR binding to PG9 (BnAb PG9; Example 5, peptides 200 μg/mL, glycans 25 μg/mL over captured PG9, listed as Man3GlcNAc2 oligosaccharide): not detected

Compound: CC(=O)NC1C(O)OC(CO)[C@@H](O[C@@H]2OC(CO)[C@@H](O[C@@H]3OC(CO[C@H]4OC(CO[C@H]5OC(CO)[C@@H](O)[C@H](O)C5O)[C@@H](O)[C@H](O[C@H]5O[C@@H](CO)[C@@H](O)C(O)C5O)C4O)[C@@H](O)[C@H](O[C@H]4O[C@@H](CO)[C@@H](O)C(O)C4O)C3O)[C@H](O)C2NC(C)=O)[C@@H]1O (stereo partly drawn) [Man5GlcNAc2 glycan alone, reference compound]
- SPR binding to CH01 (BnAb CH01; [3]): not detected
- SPR binding to PG9 (BnAb PG9; [4]): minimal to no binding
- SPR binding to PG9 (BnAb PG9; Example 5, peptides 200 μg/mL, glycans 25 μg/mL over captured PG9, listed as Man5GlcNAc2 glycan): not detected
